The record followed here is patent publication US20140005164A1, “WNT PATHWAY ANTAGONISTS” (Siena Biotech S.p.A., priority 2011, published 2014).

Each structure is given as a SMILES string.

One test has as its system Wnt/β-catenin pathway. The experiment in a line: Wnt reporter assay (TCF-Luciferase, Firefly) in DBTRG-05MG cells. As to conditions: Homo sapiens, 24 h, read-out: IC50 value in the reporter assay. Format: cell-based. The method, then: Three copies of a 4×TCF responsive elements were cloned into the pcDNA3.1/Zeo(+) vector (Invitrogen) after deletion of the constitutive CMV promoter and the insertion of the Firefly Luciferase from Promega (phFL-TK) to measure the activity of the Wnt/β-catenin pathway. The resulting plasmid was sequenced for quality control.
Cells were grown in 20 μg/ml Zeocin and 20 μg/ml Zeocin plus 30 μg/ml Hygromicin respectively. The cells were plated at a density of 6500 cells/well in poly-D-lysine pre-treated 96 well-plates.
36 hours after plating cells were incubated with 8-points dilutions compound (0.6% DMSO (v/v)). Each compound was tested in triplicate in single plate. Luciferase detection was done with Dual-Luciferase Reporter Assay System (Promega). 24 hours after compound addition, media was removed and 30 μl of 1× lysis buffer was added to each well for 30 minutes. To each well 45 μl of Dual-Glo Luciferase reagent (Promega) were added and after 1 second delay Luciferase was detected for 1 second using Mithras LB940 instrument. After Firefly luciferase quantification 45 μl of Dual Stop & Glo reagent (Promega) were added to each well and […] Renilla was detected using the same parameters described before.
Data were expressed as % of control for Firefly and Renilla luciferase independently; values were calculated using XLFit version 4.2, with a four parameters sigmoid function (XLFit model 205).
As to `COCCN(C)c1ncc2c(n1)n(C[C@H]1CC[C@H](C(=O)Nc3ccncc3)CC1)c(=O)n2C` [Example 8, Trans-4-{2-[(2-Methoxy-ethyl)-methyl-amino]-7-methyl-8-oxo-7,8-dihydro-purin-9-ylmethyl}-cyclohexanecarboxylic acid pyridine-4-ylamide], the IC50 lay within 35 to 23000 nM.

The test is the same for the next values; noted with them: Homo sapiens, TCF-Luciferase (Firefly) read out, 24 hours after compound addition, range given with mixed units nM and μM, read-out: IC50 value in the reporter assay.
Regarding `COc1ccc2c(c1)n(C[C@H]1CC[C@H](C(=O)N3CCN(C(=O)[C@H]4CCC(=O)O4)CC3)CC1)c(=O)n2C` [Example 75], the IC50 fell in the range of 35 to 23000 nM.

Regarding `Cn1c(=O)n(C[C@H]2CC[C@H](C(=O)Nc3ccncc3)CC2)c2cc(C3CC3)ccc21` [Example 69], the half-inhibitory concentration (IC50) lay within 35 to 23000 nM.

With `Cn1c(=O)n(C[C@H]2CC[C@H](C(=O)Nc3ccncc3)CC2)c2nc(OCC#N)ccc21` [Example 167], the IC50 was 35 to 23000 nM.

As to `COc1cc2c(cc1F)n(C)c(=O)n2C[C@H]1CC[C@H](C(=O)N2CCN(c3ncccn3)CC2)CC1` [Example 178], the half-inhibitory concentration (IC50) lay within 35 to 23000 nM.

Regarding `COc1ccc2c(c1)n(C[C@H]1CC[C@H](C(=O)N3CC4(COC4)C3)CC1)c(=O)n2C` [Example 95], the IC50 fell in the range of 35 to 23000 nM.

In the case of `COc1ccc2c(c1)n(C[C@H]1CC[C@H](c3nnc(C4CCOCC4)o3)CC1)c(=O)n2C` [Example 145], the IC50 is 35 to 23000 nM.

Consider `COC/C=C/c1ccc2c(n1)n(C[C@H]1CC[C@H](C(=O)N3CCN(C(C)=O)CC3)CC1)c(=O)n2C` [Example 4, 3-[Trans-4-(4-Acetyl-piperazine-1-carbonyl)-cyclohexylmethyl]-5-((E)-3-methoxy-propenyl)-1-methyl-1,3-dihydro-imidazo[4,5-b]pyridin-2-one], for which the half-inhibitory concentration (IC50) lay within 35 to 23000 nM.

With `Cn1ccc(N2CCN(C(=O)[C@H]3CC[C@H](Cn4c(=O)n(C)c5ccc(=O)[nH]c54)CC3)CC2)n1` [Example 134], the IC50 was 35 to 23000 nM.

Take `COCCOc1cc2c(cc1F)n(C)c(=O)n2C[C@H]1CC[C@H](C(=O)Nc2ccnnc2)CC1` [Example 176]: the IC50 lay in the range of 35 to 23000 nM.

`COCCOc1ccc2c(n1)n(C[C@H]1CC[C@H](c3nnc(-c4cccnc4)o3)CC1)c(=O)n2C` [Example 181]: the IC50 lay within 35 to 23000 nM.

In the case of `COc1cc2c(cc1F)n(C)c(=O)n2C[C@H]1CC[C@H](c2nnc(-c3cccnc3)o2)CC1` [Example 175], the IC50 was in the range of 35 to 23000 nM.

For the compound `COCCOc1cc(NC(=O)[C@H]2CC[C@H](Cn3c(=O)n(C)c4ccc(Cl)cc43)CC2)ccn1` [Example 40], the concentration for half-maximal inhibition (IC50) lay within 35 to 23000 nM.

As for `COc1ccc2c(c1)n(C[C@H]1CC[C@H](C(=O)N3CCSCC3)CC1)c(=O)n2C` [Example 62], the half-inhibitory concentration (IC50) lay within 35 to 23000 nM.

`COc1ccc(COc2ccc3c(c2)n(C[C@H]2CC[C@H](C(=O)Nc4ccncc4)CC2)c(=O)n3C)cc1` [Example 6, Trans-4-[6-(4-Methoxy-benzyloxy)-3-methyl-2-oxo-2,3-dihydro-benzoimidazol-1-ylmethyl]-cyclohexanecarboxylic acid pyridin-4-ylamide]: the concentration for half-maximal inhibition (IC50) was in the range of 35 to 23000 nM.

With `COCCOc1cc(NC(=O)[C@H]2CC[C@H](Cn3c(=O)n(C)c4cc(Cl)ccc43)CC2)ccn1` [Example 57], the 50% inhibitory concentration (IC50) lay within 35 to 23000 nM.

Turning to `COc1ccc2c(c1)n(C[C@H]1CC[C@H](C(=O)Nc3ccnnc3)CC1)c(=O)n2C` [Example 100], the IC50 lay within 35 to 23000 nM.

`COCCOc1ccc2c(n1)n(C[C@H]1CC[C@H](C(=O)Nc3ccncc3)CC1)c(=O)n2C` [Example 150]: the IC50 lay within 35 to 23000 nM.

Consider `COc1ccc2c(c1)n(C[C@H]1CC[C@H](c3nnc(-c4ccncc4)o3)CC1)c(=O)n2C` [Example 97], for which the IC50 lay in the range of 35 to 23000 nM.

As for `COc1ccc2c(c1)n(C[C@H]1CC[C@H](C(=O)N3CCN(c4cc(C)nc(C)c4)CC3)CC1)c(=O)n2C` [Example 94], the IC50 is 35 to 23000 nM.

For the compound `COc1ccc2c(c1)n(C[C@H]1CC[C@H](C(=O)N3[C@H](C)CCC[C@@H]3C)CC1)c(=O)n2C` [Example 59], the IC50 lay within 35 to 23000 nM.

For `COc1cc(NC(=O)[C@H]2CC[C@H](Cn3c(=O)n(C)c4ccc(Cl)cc43)CC2)ccn1` [Example 52], the half-inhibitory concentration (IC50) was 35 to 23000 nM.

Consider `COc1ccc2c(c1)n(C[C@H]1CC[C@H](C(=O)Nc3ccncc3C)CC1)c(=O)n2C` [Example 30], for which the 50% inhibitory concentration (IC50) was 35 to 23000 nM.

Take `COCCN(C)c1ccc2c(n1)n(C[C@H]1CC[C@H](C(=O)Nc3ccncc3)CC1)c(=O)n2C` [Example 108]: the IC50 is 35 to 23000 nM.

As for `COCCNc1ccc2c(c1)n(C[C@H]1CC[C@H](C(=O)N3CCN(C(C)=O)CC3)CC1)c(=O)n2C` [Example 15, 3-[trans-4-(4-Acetyl-piperazine-1-carbonyl)-cyclohexylmethyl]-5-(2-methoxy-ethylamino)-1-methyl-1,3-dihydro-benzoimidazol-2-one], the concentration for half-maximal inhibition (IC50) was in the range of 35 to 23000 nM.

Regarding `COc1ccc2c(c1)n(C[C@H]1CC[C@H](C(=O)N3CCC(c4cnccn4)CC3)CC1)c(=O)n2C` [Example 83], the IC50 fell in the range of 35 to 23000 nM.

On to `COCCOc1ccc2c(n1)n(C[C@H]1CC[C@H](C(=O)Nc3ccnnc3)CC1)c(=O)n2C` [Example 173], for which the IC50 was 35 to 23000 nM.

Consider `COCCN(C)c1ncccc1NC(=O)[C@H]1CC[C@H](Cn2c(=O)n(C)c3ccc(OC)cc32)CC1` [Example 45], for which the 50% inhibitory concentration (IC50) is 35 to 23000 nM.

As for `COc1ccc2c(c1)n(C[C@H]1CC[C@H](C(=O)N3CCN(c4ccc(C#N)nc4)CC3)CC1)c(=O)n2C` [Example 88], the half-inhibitory concentration (IC50) fell in the range of 35 to 23000 nM.

Consider `Cn1c(=O)n(C[C@H]2CC[C@H](C(=O)N3CCN(c4ccncc4)CC3)CC2)c2cc(C(F)(F)F)ccc21` [Example 73], for which the IC50 fell in the range of 35 to 23000 nM.

With `COc1ccc2c(c1)n(C[C@H]1CC[C@H](c3nnc(-c4ccncn4)o3)CC1)c(=O)n2C` [Example 117], the concentration for half-maximal inhibition (IC50) fell in the range of 35 to 23000 nM.

As to `COc1ccc2c(c1)n(C[C@H]1CC[C@H](C(=O)Nc3ccc(N4C[C@@H](C)O[C@@H](C)C4)nc3)CC1)c(=O)n2C` [Example 64], the IC50 fell in the range of 35 to 23000 nM.

In the case of `COC/C=C/c1ccc2c(n1)n(C[C@H]1CC[C@H](C(=O)Nc3ccncc3)CC1)c(=O)n2C` [Example 114], the concentration for half-maximal inhibition (IC50) was in the range of 35 to 23000 nM.

Regarding `COc1cc2c(cc1F)n(C)c(=O)n2C[C@H]1CC[C@H](C(=O)N2CCN(c3cnn(C)c3)CC2)CC1` [Example 183], the concentration for half-maximal inhibition (IC50) was 35 to 23000 nM.

With `Cn1c(=O)n(C[C@H]2CC[C@H](C(=O)Nc3ccncc3)CC2)c2cc(OCCF)ccc21` [Example 137], the IC50 is 35 to 23000 nM.

For `COCCNc1ccc2c(c1)n(C[C@H]1CC[C@H](C(=O)Nc3ccncc3)CC1)c(=O)n2C` [Example 78], the half-inhibitory concentration (IC50) lay in the range of 35 to 23000 nM.

For `Cn1cc(C2=CCN(C(=O)[C@H]3CC[C@H](Cn4c(=O)n(C)c5ccc(=O)[nH]c54)CC3)CC2)cn1` [Example 135], the IC50 is 35 to 23000 nM.

For `COc1ccc2c(c1)n(C[C@H]1CC[C@H](C(=O)Nc3ccc(-c4nnco4)cc3)CC1)c(=O)n2C` [Example 66], the IC50 is 35 to 23000 nM.

In the case of `CCC(=O)CN1CCN(C(=O)[C@H]2CC[C@H](Cn3c(=O)n(C)c4ccc(OC)cc43)CC2)CC1=O` [Example 7, 5-Methoxy-1-methyl-3-{trans-4-[3-oxo-4-(2-oxo-butyl)-piperazine-1-carbonyl]-cyclohexylmethyl}-1,3-dihydro-benzoimidazol-2-one], the half-maximal inhibitory concentration (IC50) lay in the range of 35 to 23000 nM.

For the compound `Cn1c(=O)n(C[C@H]2CC[C@H](C(=O)Nc3ccncc3)CC2)c2nc(OCC(F)(F)F)ccc21` [Example 171], the IC50 lay in the range of 35 to 23000 nM.

On to `COc1ccc2c(c1)n(C[C@H]1CC[C@H](C(=O)N3CCN(c4nccc(OC)n4)CC3)CC1)c(=O)n2C` [Example 51], for which the IC50 lay in the range of 35 to 23000 nM.

Turning to `COc1ccc2c(c1)n(C[C@H]1CC[C@H](C(=O)N3CCN(c4ccnc(OC)c4)CC3)CC1)c(=O)n2C` [Example 91], the half-inhibitory concentration (IC50) fell in the range of 35 to 23000 nM.

As to `COCCOc1ccc2c(c1)n(C[C@H]1CC[C@H](C(=O)N3CCN(c4ccncc4)CC3)CC1)c(=O)n2C` [Example 157], the concentration for half-maximal inhibition (IC50) lay within 35 to 23000 nM.

For the compound `Cn1cc(C2=CCN(C(=O)[C@H]3CC[C@H](Cn4c(=O)n(C)c5ccc(OC(F)F)cc54)CC3)CC2)cn1` [Example 166], the half-inhibitory concentration (IC50) lay in the range of 35 to 23000 nM.

On to `Cn1c(=O)n(C[C@H]2CC[C@H](C(=O)N3CCN(c4nccs4)CC3)CC2)c2ccc(Cl)cc21` [Example 54], for which the half-maximal inhibitory concentration (IC50) is 35 to 23000 nM.

For the compound `COc1ccc2c(c1)n(C[C@H]1CC[C@H](c3nnc(-c4ccncc4F)o3)CC1)c(=O)n2C` [Example 109], the half-maximal inhibitory concentration (IC50) is 35 to 23000 nM.

As to `Cn1c(=O)n(C[C@H]2CC[C@H](C(=O)N3CCN(c4cnccn4)CC3)CC2)c2cc(C#N)ccc21` [Example 155], the 50% inhibitory concentration (IC50) is 35 to 23000 nM.

For the compound `COc1cc2c(cc1F)n(C)c(=O)n2C[C@H]1CC[C@H](C(=O)N2CCOCC2)CC1` [Example 160], the IC50 lay within 35 to 23000 nM.

Turning to `COCCOc1cc(NC(=O)[C@H]2CC[C@H](Cn3c(=O)n(C)c4ccc(OC)cc43)CC2)ccn1` [Example 36], the half-maximal inhibitory concentration (IC50) lay within 35 to 23000 nM.

`CC(=O)N1CCN(C(=O)[C@H]2CC[C@H](Cn3c(=O)n(C)c4ccc(CCCC#N)nc43)CC2)CC1` [Example 101]: the IC50 fell in the range of 35 to 23000 nM.

Take `CC(=O)N1CCN(C(=O)[C@H]2CC[C@H](Cn3c(=O)n(C)c4ccc(O)cc43)CC2)CC1` [Example 16, 3-[trans-4-(4-Acetyl-piperazine-1-carbonyl)-cyclohexylmethyl]-5-hydroxy-1-methyl-1,3-dihydro-benzoimidazol-2-one]: the IC50 fell in the range of 35 to 23000 nM.

As to `CN(C)c1ccc2c(n1)n(C[C@H]1CC[C@H](C(=O)Nc3ccncc3)CC1)c(=O)n2C` [Example 120], the IC50 lay in the range of 35 to 23000 nM.

Broadly, the IC50 is the concentration at which inhibition is half-maximal.
